Laboratory results: patent US20120220564A1, “SELECTIVE CALCIUM CHANNEL MODULATORS” (Zalicus Pharmaceuticals Ltd., priority 2009, published 2012)
Values belong to the molecule of their own block, whether it stands above or below them.

Key:
α1H (CaV 3.2) = biological target: T1, α1H (CaV 3.2) (Homo sapiens, UniProt O95180); experiment: T-type calcium channel block, whole cell patch clamp; type: cell-based; conditions: HEK cells, mainly non-inactivated protocol; values above 10,000 nM represented as 10000
T1 construct: expressed in transfected cells; host or cells: HEK 293
Procedure: (§1) T-type calcium channel blocking activity was assayed in human embryonic kidney cells, HEK 293 (Invitrogen), stably transfected with the T-type calcium channel subunits. Briefly, cells were cultured in Dulbecco's modified eagle medium (DMEM) supplemented with 10% fetal bovine serum, 200 U/ml penicillin, and 0.2 mg/mL streptomycin at 37° C. with 5% CO2. At 85% confluency, cells were split with 0.25% trypsin/1 mM EDTA and plated at 10% confluency on glass coverslips. At 12 hours, the medium was replaced, and the cells stably transfected using a standard calcium phosphate protocol and the appropriate calcium channel cDNA's. Fresh DMEM was supplied, and the cells transferred to 28° C./5% CO2. Cells were incubated for 1 to 2 days prior to whole cell recording.
(§2) Standard patch-clamp techniques were employed to identify blockers of T-type currents. Briefly, previously described HEK cell lines stably expressing human α1G, α1H and α1I T-type channels were used for all the recordings (passage #: 4-20, 37° C., 5% CO2). Whole cell patch clamp experiments were performed using an Axopatch 200B amplifier (Axon Instruments, Burlingame, Calif.) linked to a personal computer equipped with pCLAMP software. Data were analyzed using Clampfit (Axon Instruments) and SigmaPlot 4.0 (Jandel Scientific). To obtain T-type currents, plastic dishes containing semi-confluent cells were positioned on the stage of a ZEISS AXIOVERT S100 microscope after replacing the culture medium with external solution (Table 2). Whole-cell patches were obtained using pipettes (borosilicate glass with filament, O.D.: 1.5 mm, I.D.: 0.86 mm, 10 cm length), fabricated on a SUTTER P-97 puller with resistance values of ˜5 MΩ (Table 3).
(§3) T-type currents were reliably obtained by using two voltage protocols:
(§4) In the non-inactivating protocol, the holding potential is set at −110 mV and with a pre-pulse at −100 mV for 1 second prior to the test pulse at −40 mV for 50 ms. In the inactivation protocol, the pre-pulse is at approximately −85 mV for 1 second, which inactivates about 15% of the T-type channels (Scheme 1).
(§5) Test compounds were dissolved in external solution, 0.1-0.01% DMSO. After ˜10 minutes rest, they were applied by gravity close to the cell using a WPI microfil tubing. The “non-inactivated” pre-pulse was used to examine the resting block of a compound. The “inactivated” protocol was employed to study voltage-dependent block. However, the initial data shown below were mainly obtained using the non-inactivated protocol only. IC50 values are shown for various compounds of the invention in Table 4. […] In Table 4, empty cells indicate that inhibition by the compound was not detected.

α1G (CaV 3.1) = biological target: T2, α1G (CaV 3.1) (Homo sapiens, UniProt O43497); experiment: as above; type: cell-based; conditions: HEK cells, mainly non-inactivated protocol; values above 10,000 nM represented as 10000
T2 construct: expressed in transfected cells; host or cells: HEK 293
Procedure: as §1, §2, §3, §4, §5

6 Hz psychomotor seizure = 6 Hz psychomotor seizure model of partial epilepsy; type: in vivo, mice; parameters: concentration or dose not given beside the values
From the text: Compounds can also be evaluated for the protection against seizures induced by a 6 Hz, 0.2 ms rectangular pulse width of 3 s duration, at a stimulus intensity of 32 mA (CC97) applied to the cornea of male CF1 mice (20-30 g) according to procedures described by Barton et al, “Pharmacological Characterization of the 6 Hz Psychomotor Seizure Model of Partial Epilepsy,” Epilepsy Res. 47(3):217-27 (2001). Seizures are characterised by the expression of one or more of the following behaviours: stun, forelimb clonus, twitching of the vibrissae and Straub-tail immediately following electrical stimulation.

[1] = tested on: minimal muscular or neurological impairment (rotarod); experiment: Mouse rotarod assay; type: in vivo, mice
Procedure: To assess a compound's undesirable side effects (toxicity), animals can be monitored for overt signs of impaired neurological or muscular function. In mice, the rotarod procedure (Dunham and Miya, J. Am. Pharmacol. Assoc. 46:208-209 (1957)) is used to disclose minimal muscular or neurological impairment (MMI). When a mouse is placed on a rod that rotates at a speed of 6 rpm, the animal can maintain its equilibrium for long periods of time. The animal is considered toxic if it falls off this rotating rod three times during a 1-min period.

T1 sequence (O95180 whole entry): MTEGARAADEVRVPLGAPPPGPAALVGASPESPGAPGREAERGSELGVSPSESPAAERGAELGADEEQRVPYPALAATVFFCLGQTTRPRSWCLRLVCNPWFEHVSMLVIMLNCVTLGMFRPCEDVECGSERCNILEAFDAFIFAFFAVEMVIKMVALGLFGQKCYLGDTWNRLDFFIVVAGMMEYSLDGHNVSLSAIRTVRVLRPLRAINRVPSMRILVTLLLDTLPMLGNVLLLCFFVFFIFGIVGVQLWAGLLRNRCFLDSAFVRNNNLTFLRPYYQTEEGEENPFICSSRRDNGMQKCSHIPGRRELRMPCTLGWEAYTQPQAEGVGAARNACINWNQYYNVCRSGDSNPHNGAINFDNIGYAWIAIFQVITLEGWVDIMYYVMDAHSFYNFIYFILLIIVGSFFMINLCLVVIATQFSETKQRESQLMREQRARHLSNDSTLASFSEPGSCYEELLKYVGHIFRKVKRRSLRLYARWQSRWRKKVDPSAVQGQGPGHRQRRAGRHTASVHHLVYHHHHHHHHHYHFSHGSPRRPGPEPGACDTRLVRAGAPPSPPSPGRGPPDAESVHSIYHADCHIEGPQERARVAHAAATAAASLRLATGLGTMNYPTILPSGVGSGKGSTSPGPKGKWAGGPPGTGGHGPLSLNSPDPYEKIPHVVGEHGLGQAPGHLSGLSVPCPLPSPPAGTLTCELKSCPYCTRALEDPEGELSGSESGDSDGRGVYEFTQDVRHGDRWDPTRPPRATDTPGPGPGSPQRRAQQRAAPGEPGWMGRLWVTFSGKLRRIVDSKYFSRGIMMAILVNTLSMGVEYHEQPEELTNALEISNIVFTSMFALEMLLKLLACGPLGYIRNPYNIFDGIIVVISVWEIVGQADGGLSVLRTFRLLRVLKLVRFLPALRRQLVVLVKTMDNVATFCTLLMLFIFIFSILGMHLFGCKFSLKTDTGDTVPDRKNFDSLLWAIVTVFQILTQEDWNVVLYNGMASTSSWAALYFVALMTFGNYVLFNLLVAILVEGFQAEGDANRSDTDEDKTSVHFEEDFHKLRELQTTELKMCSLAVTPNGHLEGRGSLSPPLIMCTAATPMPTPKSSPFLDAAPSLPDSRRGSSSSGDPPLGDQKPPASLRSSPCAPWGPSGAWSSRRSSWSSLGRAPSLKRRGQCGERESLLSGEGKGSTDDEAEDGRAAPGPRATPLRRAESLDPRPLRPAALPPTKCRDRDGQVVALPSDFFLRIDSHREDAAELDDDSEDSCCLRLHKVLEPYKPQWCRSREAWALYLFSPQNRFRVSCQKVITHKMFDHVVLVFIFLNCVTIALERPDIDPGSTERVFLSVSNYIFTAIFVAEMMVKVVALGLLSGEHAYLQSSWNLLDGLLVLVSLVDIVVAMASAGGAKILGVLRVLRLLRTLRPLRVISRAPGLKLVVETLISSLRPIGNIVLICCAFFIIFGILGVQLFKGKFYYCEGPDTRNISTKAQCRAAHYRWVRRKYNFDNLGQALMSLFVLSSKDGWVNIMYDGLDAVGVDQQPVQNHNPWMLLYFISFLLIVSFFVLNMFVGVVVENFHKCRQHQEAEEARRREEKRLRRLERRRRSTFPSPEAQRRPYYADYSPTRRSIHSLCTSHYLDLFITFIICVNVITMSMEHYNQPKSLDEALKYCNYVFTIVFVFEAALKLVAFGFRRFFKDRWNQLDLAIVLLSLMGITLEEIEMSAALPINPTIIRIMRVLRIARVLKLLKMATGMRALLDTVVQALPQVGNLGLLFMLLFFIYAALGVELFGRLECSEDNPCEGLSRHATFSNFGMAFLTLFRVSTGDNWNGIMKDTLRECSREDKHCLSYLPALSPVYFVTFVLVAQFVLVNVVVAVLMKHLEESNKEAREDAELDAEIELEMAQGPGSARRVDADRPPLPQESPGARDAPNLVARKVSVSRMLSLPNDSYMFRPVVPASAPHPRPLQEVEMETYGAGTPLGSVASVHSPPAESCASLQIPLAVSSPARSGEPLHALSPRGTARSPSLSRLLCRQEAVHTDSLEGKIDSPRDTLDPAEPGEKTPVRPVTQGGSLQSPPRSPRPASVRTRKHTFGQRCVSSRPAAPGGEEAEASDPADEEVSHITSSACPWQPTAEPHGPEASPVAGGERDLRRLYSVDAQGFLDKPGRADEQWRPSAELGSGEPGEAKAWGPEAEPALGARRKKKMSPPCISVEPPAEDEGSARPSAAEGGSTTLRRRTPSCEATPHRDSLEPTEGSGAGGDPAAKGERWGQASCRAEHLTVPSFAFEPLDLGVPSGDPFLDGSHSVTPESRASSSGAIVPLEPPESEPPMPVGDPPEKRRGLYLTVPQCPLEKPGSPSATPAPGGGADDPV
T2 sequence (O43497 whole entry): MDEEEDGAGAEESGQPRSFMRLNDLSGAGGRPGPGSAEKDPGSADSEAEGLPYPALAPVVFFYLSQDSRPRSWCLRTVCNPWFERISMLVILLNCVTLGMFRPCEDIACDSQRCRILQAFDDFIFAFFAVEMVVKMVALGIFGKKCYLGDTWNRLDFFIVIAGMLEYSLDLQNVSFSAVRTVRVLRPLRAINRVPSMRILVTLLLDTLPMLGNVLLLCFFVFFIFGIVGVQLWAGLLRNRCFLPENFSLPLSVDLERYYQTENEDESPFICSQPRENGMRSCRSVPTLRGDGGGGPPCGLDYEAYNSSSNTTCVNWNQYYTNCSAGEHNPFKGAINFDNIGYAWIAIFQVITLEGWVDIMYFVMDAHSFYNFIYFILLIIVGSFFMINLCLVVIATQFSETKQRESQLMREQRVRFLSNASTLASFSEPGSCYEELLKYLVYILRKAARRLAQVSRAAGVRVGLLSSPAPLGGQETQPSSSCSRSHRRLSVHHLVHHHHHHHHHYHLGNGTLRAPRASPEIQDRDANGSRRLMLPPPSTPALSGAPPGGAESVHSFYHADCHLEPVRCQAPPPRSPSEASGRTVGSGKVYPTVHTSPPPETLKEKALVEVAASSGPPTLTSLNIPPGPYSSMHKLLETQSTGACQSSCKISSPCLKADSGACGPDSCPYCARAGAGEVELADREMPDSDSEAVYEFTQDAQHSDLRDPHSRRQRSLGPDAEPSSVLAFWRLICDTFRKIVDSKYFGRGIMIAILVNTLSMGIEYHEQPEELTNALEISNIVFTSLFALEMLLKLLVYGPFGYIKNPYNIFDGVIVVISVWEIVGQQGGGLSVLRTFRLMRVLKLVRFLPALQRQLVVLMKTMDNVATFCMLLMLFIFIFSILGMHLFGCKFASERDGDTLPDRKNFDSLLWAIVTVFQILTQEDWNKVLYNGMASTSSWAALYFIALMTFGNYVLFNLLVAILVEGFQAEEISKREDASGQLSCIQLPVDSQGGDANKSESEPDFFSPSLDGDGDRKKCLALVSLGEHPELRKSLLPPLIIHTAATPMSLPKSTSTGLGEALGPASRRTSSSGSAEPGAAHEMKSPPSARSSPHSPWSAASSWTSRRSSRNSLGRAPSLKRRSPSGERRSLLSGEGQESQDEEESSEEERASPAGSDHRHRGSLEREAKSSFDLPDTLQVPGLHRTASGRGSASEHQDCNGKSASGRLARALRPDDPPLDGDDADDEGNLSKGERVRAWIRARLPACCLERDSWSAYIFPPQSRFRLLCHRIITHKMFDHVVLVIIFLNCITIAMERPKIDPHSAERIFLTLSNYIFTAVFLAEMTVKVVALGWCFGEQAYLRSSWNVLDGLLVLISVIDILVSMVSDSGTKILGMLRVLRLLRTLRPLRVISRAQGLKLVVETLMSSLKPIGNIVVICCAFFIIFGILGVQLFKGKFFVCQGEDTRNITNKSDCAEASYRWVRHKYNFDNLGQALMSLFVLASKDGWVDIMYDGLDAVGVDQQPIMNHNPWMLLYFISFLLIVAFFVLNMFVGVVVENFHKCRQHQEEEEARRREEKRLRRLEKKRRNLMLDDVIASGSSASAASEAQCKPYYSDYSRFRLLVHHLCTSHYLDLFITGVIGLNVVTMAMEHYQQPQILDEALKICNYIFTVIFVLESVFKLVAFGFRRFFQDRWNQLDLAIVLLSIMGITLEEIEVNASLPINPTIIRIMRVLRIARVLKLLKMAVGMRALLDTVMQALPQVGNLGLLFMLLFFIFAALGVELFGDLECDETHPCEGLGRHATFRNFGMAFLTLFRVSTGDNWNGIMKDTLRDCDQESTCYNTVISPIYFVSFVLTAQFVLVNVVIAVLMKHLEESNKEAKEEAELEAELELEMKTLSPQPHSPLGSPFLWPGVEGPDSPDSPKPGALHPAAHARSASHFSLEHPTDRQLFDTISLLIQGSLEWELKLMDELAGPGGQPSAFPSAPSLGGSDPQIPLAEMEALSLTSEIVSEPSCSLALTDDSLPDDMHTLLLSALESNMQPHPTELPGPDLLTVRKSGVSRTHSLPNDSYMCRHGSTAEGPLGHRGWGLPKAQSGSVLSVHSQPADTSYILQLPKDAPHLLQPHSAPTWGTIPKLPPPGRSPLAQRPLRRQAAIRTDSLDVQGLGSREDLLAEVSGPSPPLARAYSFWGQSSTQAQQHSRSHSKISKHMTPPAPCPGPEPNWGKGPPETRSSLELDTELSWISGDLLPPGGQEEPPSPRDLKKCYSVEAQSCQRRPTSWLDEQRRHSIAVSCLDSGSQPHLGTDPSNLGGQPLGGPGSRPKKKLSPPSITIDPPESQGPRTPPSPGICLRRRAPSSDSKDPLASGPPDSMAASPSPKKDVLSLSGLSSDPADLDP

Compound: N[C@H]1CCCC[C@@H]1C(=O)N1CCC(CC(=O)Nc2cccc(C(F)(F)F)c2)CC1 (racemic) [Compound 13, trans-2-(1-(2-aminocyclohexanecarbonyl)piperidin-4-yl)-N-(3-(trifluoromethyl)phenyl)acetamide]
IC50 (α1H (CaV 3.2)): 2670 nM
IC50 (α1G (CaV 3.1)): > 10000 nM

Compound: N[C@H]1CCCC[C@@H]1C(=O)N1CCC(CC(=O)Nc2cc(Br)cc(C(F)(F)F)c2)CC1 (racemic) [Compound 19, trans-2-(1-(2-aminocyclohexanecarbonyl)piperidin-4-yl)-N-(3-bromo-5-(trifluoromethyl)phenyl)acetamide]
IC50 (α1H (CaV 3.2)): 280 nM
IC50 (α1G (CaV 3.1)): > 10000 nM

Compound: O=C(Nc1cc(C(F)(F)F)cc(C(F)(F)F)c1)OCC1CCN(C(=O)[C@H]2CCCCN2)CC1 [Compound 69]
Epilepsy 6 Hz (% Protected) (6 Hz psychomotor seizure; 0.25 hr): 75%
Epilepsy 6 Hz (% Protected) (6 Hz psychomotor seizure; 0.5 hr): 75%
Epilepsy 6 Hz (% Protected) (6 Hz psychomotor seizure; 1 hr): 50%
Epilepsy 6 Hz (% Protected) (6 Hz psychomotor seizure; 2 hr): 100%
Epilepsy 6 Hz (% Protected) (6 Hz psychomotor seizure; 4 hr): 33%
Rotarod Assay (% impaired) ([1]; 0.25 hr): 0%
Rotarod Assay (% impaired) ([1]; 0.5 hr): 50%
Rotarod Assay (% impaired) ([1]; 1 hr): 50%
Rotarod Assay (% impaired) ([1]; 2 hr): 100%
Rotarod Assay (% impaired) ([1]; 4 hr): 100%

Compound: CN1CCCC(C(=O)N2CCC(CC(=O)Nc3cc(C(F)(F)F)cc(C(F)(F)F)c3)CC2)C1 (centres unmarked) [Compound 1, N-(3,5-bis(trifluoromethyl)phenyl)-2-(1-(1-methylpiperidine-3-carbonyl)piperidin-4-yl)acetamide]
IC50 (α1H (CaV 3.2)): 510 nM
IC50 (α1G (CaV 3.1)): > 10000 nM

Compound: N[C@H]1CCCC[C@@H]1C(=O)N1CCC(CC(=O)Nc2cc(C(F)(F)F)cc(C(F)(F)F)c2)C1 (stereo partly drawn) [Compound 33, 2-(1-((1S,2S)-2-aminocyclohexanecarbonyl)pyrrolidin-3-yl)-N-(3,5-bis(trifluoromethyl)phenyl)acetamide]
IC50 (α1H (CaV 3.2)): 260 nM
IC50 (α1G (CaV 3.1)): 5290 nM

Compound: N[C@H]1CCCC[C@H]1C(=O)N1CCC(CNC(=O)c2cc(C(F)(F)F)cc(C(F)(F)F)c2)CC1 (racemic) [Compound 49]
IC50 (α1H (CaV 3.2)): 1930 nM

Compound: N[C@@H]1CCCC[C@@H]1C(=O)N1CCC(CC(=O)Nc2cc(C(F)(F)F)cc(C(F)(F)F)c2)CC1 [Compound 73]
Epilepsy 6 Hz (% Protected) (6 Hz psychomotor seizure; 0.25 hr): 100%
Epilepsy 6 Hz (% Protected) (6 Hz psychomotor seizure; 0.5 hr): 100%
Epilepsy 6 Hz (% Protected) (6 Hz psychomotor seizure; 1 hr): 100%
Epilepsy 6 Hz (% Protected) (6 Hz psychomotor seizure; 4 hr): 100%
Rotarod Assay (% impaired) ([1]; 0.25 hr): 100%
Rotarod Assay (% impaired) ([1]; 0.5 hr): 100%
Rotarod Assay (% impaired) ([1]; 1 hr): 100%
Rotarod Assay (% impaired) ([1]; 2 hr): 100%
Rotarod Assay (% impaired) ([1]; 4 hr): 75%

Compound: N[C@@H]1CCCC[C@H]1C(=O)N1CCC(O)(CC(=O)Nc2cc(C(F)(F)F)cc(C(F)(F)F)c2)CC1 (relative stereo) [Compound 51, trans-2-(1-(2-aminocyclohexanecarbonyl)-4-hydroxypiperidin-4-yl)-N-(3,5-bis(trifluoromethyl)phenyl)acetamide]
IC50 (α1H (CaV 3.2)): 490 nM

Compound: N[C@H]1CCCC[C@@H]1C(=O)N1CCC(CC(=O)Nc2ccc(F)cc2)CC1 (racemic) [Compound 11, trans-2-(1-(2-aminocyclohexanecarbonyl)piperidin-4-yl)-N-(4-fluorophenyl)acetamide]
IC50 (α1H (CaV 3.2)): > 10000 nM

Compound: CC1(CC(=O)Nc2cc(C(F)(F)F)cc(C(F)(F)F)c2)CCN(C(=O)[C@H]2CCCCN2)CC1 [Compound 68]
Epilepsy 6 Hz (% Protected) (6 Hz psychomotor seizure; 0.25 hr): 50%
Epilepsy 6 Hz (% Protected) (6 Hz psychomotor seizure; 0.5 hr): 75%
Epilepsy 6 Hz (% Protected) (6 Hz psychomotor seizure; 1 hr): 100%
Epilepsy 6 Hz (% Protected) (6 Hz psychomotor seizure; 2 hr): 50%
Epilepsy 6 Hz (% Protected) (6 Hz psychomotor seizure; 4 hr): 0%

Compound: N[C@H]1CCCC[C@@H]1C(=O)N1CCC(CC(=O)Nc2ccc(OC(F)(F)F)cc2)CC1 (racemic) [Compound 18, trans-2-(1-(2-aminocyclohexanecarbonyl)piperidin-4-yl)-N-(4-(trifluoromethoxy)phenyl)acetamide]
IC50 (α1H (CaV 3.2)): 2730 nM

Compound: O=C(CC1(O)CCN(C(=O)[C@@H]2CCCCN2)CC1)Nc1cc(C(F)(F)F)cc(C(F)(F)F)c1 [Compound 50, (S)-N-(3,5-bis(trifluoromethyl)phenyl)-2-(4-hydroxy-1-(piperidine-2-carbonyl)piperidin-4-yl)acetamide]
IC50 (α1H (CaV 3.2)): 520 nM

Compound: N[C@H]1CCCC[C@@H]1C(=O)N1CCC(CC(=O)Nc2cc(F)c(F)cc2F)CC1 (racemic) [Compound 14, trans-2-(1-(2-aminocyclohexanecarbonyl)piperidin-4-yl)-N-(2,4,5-trifluorophenyl)acetamide]
IC50 (α1H (CaV 3.2)): > 10000 nM

Compound: N[C@@H]1CCCC[C@@H]1C(=O)N1CCC(O)(CC(=O)Nc2cc(C(F)(F)F)cc(C(F)(F)F)c2)CC1 (racemic) [Compound 52, cis-2-(1-(2-aminocyclohexanecarbonyl)-4-hydroxypiperidin-4-yl)-N-(3,5-bis(trifluoromethyl)phenyl)acetamide]
IC50 (α1H (CaV 3.2)): 820 nM

Second part, led by results:

IC50 (α1H (CaV 3.2)): 1860 nM
Compound: O=C(CC1(O)CCN(C(=O)[C@H]2CCCCN2)CC1)Nc1cc(C(F)(F)F)cc(C(F)(F)F)c1 [Compound 53, (R)-N-(3,5-bis(trifluoromethyl)phenyl)-2-(4-hydroxy-1-(piperidine-2-carbonyl)piperidin-4-yl)acetamide]

IC50 (α1H (CaV 3.2)): 950 nM
Compound: O=C(Nc1cc(C(F)(F)F)cc(C(F)(F)F)c1)NC1CCN(C(=O)[C@@H]2CCCCN2)CC1 [Compound 60, (S)-1-(3,5-bis(trifluoromethyl)phenyl)-3-(1-(piperidine-2-carbonyl)piperidin-4-yl)urea]

IC50 (α1H (CaV 3.2)): 360 nM
Compound: NC1(CC(=O)N2CCC(NC(=O)Nc3cc(C(F)(F)F)cc(C(F)(F)F)c3)CC2)CCCCC1 [Compound 64, 1-(1-(2-(1-aminocyclohexyl)acetyl)piperidin-4-yl)-3-(3,5-bis(trifluoromethyl)phenyl)urea]

IC50 (α1H (CaV 3.2)): 270 nM
Compound: N[C@@H]1CCCC[C@H]1C(=O)N1CCC(NC(=O)Nc2cc(C(F)(F)F)cc(C(F)(F)F)c2)CC1 (racemic) [Compound 62, trans-2-(1-(2-aminocyclohexanecarbonyl)piperidin-4-yl)-3-(3,5-bis(trifiuoromethyl)phenyl)urea]

IC50 (α1H (CaV 3.2)): 430 nM
Compound: N[C@@H]1CCCC[C@@H]1C(=O)N1CCC(NC(=O)Nc2cc(C(F)(F)F)cc(C(F)(F)F)c2)CC1 (racemic) [Compound 63, cis-2-(1-(2-aminocyclohexanecarbonyl)piperidin-4-yl)-3-(3,5-bis(trifluoromethyl)phenyl)urea]

IC50 (α1H (CaV 3.2)): 250 nM
Compound: N[C@@H]1CCCC[C@H]1C(=O)N1CCC(CNC(=O)Nc2cc(C(F)(F)F)cc(C(F)(F)F)c2)CC1 (racemic) [Compound 57]

IC50 (α1H (CaV 3.2)): 30 nM
Compound: NC1(CC(=O)N2CCC(CNC(=O)Nc3cc(C(F)(F)F)cc(C(F)(F)F)c3)CC2)CCCCC1 [Compound 59, 1-((1-(2-(1-aminocyclohexyl)acetyl)piperidin-4-yl)methyl)-3-(3,5-bis(trifluoromethyl)phenyl)urea]
Epilepsy 6 Hz (% Protected) (6 Hz psychomotor seizure; 0.25 hr): 25%
Epilepsy 6 Hz (% Protected) (6 Hz psychomotor seizure; 0.5 hr): 50%
Epilepsy 6 Hz (% Protected) (6 Hz psychomotor seizure; 1 hr): 100%
Rotarod Assay (% impaired) ([1]; 0.25 hr): 0%
Rotarod Assay (% impaired) ([1]; 0.5 hr): 25%
Rotarod Assay (% impaired) ([1]; 1 hr): 75%
Rotarod Assay (% impaired) ([1]; 2 hr): 100%
Rotarod Assay (% impaired) ([1]; 4 hr): 100%

IC50 (α1H (CaV 3.2)): 250 nM
Compound: N[C@@H]1CCCC[C@@H]1C(=O)N1CCC(CNC(=O)Nc2cc(C(F)(F)F)cc(C(F)(F)F)c2)CC1 (racemic) [Compound 58]

IC50 (α1H (CaV 3.2)): 690 nM
Compound: O=C(Nc1cc(C(F)(F)F)cc(C(F)(F)F)c1)NC1CCN(C(=O)[C@H]2CCCCN2)CC1 [Compound 61, (R)-1-(3,5-bis(trifluoromethyl)phenyl)-3-(1-(piperidine-2-carbonyl)piperidin-4-yl)urea]
